Measurements published in patent US20220323406A1, “METHODS AND COMPOSITIONS FOR DIFFERENTIATING STEM CELLS” (Massachusetts Institute of Technology, priority 2019, published 2022).

Key:
[1] = system: ENR+CD organoids (ISC to Paneth cell differentiation); experiment: Primary screen: CCh-stimulated lysozyme secretion LYZ.S, 2.5-D 384-well ENR+CD organoid differentiation; assay type: cell-based, mouse; conditions: primary screen
From the text: (§1) High-throughput screening.

[2] = system: ENR+CD organoids (ISC to Paneth cell differentiation); experiment: Primary screen: basal (non-stimulated) lysozyme secretion LYZ.NS, 2.5-D 384-well ENR+CD organoid differentiation; assay type: cell-based, mouse; conditions: primary screen; for Z.LYZ.NS: standard z score
From the text: as §1

[3] = system: ENR+CD organoids; experiment: Primary screen: ATP (CellTiter-Glo 3D, CTG) cell number/viability, 2.5-D 384-well ENR+CD organoids; conditions: primary screen; for Z.CTG: standard z score;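 on all read-outs here: compounds given at plating and again on day 3 over a 6-day differentiation from ENR+CV stem-cell-enriched precursors, ATP measured on day 6, plate median as control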
[4] = dose 0.08 uM, FC vs plate median
[5] = dose 0.40 uM, FC vs plate median
[6] = dose 2.00 uM, FC vs plate median
[7] = dose 10.00 uM, FC vs plate median
[8] = 1st dose row of the treatment (0.08 uM by row order; dose not reprinted)
[9] = 2nd dose row of the treatment (0.40 uM by row order; dose not reprinted)
[10] = 3rd dose row of the treatment (2.00 uM by row order; dose not reprinted)
[11] = 4th dose row of the treatment (10.00 uM by row order; dose not reprinted)
[12] = dose 0.08 uM, FC relative to plate median
[13] = dose 0.40 uM, FC relative to plate median
[14] = dose 2.00 uM, FC relative to plate median
[15] = dose 10.00 uM, FC relative to plate median

With `COc1ccnc2[nH]cc(C(=O)C(=O)N3CCN(C(=O)c4ccccc4)C[C@H]3C)c12` [BMS-378806] the Dose.FC.LYZ.S ([1]; dose 0.08 uM) was 0.159 log2 fold change, the Dose.FC.LYZ.S ([1]; dose 2.00 uM) was −0.142 log2 fold change and the Dose.FC.LYZ.S ([1]; dose 10.00 uM) was −0.322 log2 fold change. The Dose.FC.LYZ.NS ([2]; dose 0.08 uM) was 0.141 log2 fold change, the “Z.LYZ.NS (standard z score)” value ([2]; dose 0.08 uM) was 1.231 and the Dose.FC.LYZ.NS ([2]; dose 2.00 uM) was −0.100 log2 fold change. For the same compound, the “Z.LYZ.NS (standard z score)” value ([2]; dose 2.00 uM) was −0.870, the Dose.FC.LYZ.NS ([2]; dose 10.00 uM) was −0.227 log2 fold change and the “Z.LYZ.NS (standard z score)” value ([2]; dose 10.00 uM) was −1.977. For the same compound, the Dose.FC.CTG ([3]; dose 0.08 uM) was 0.233 log2 fold change, the “Z.CTG (standard z score)” value ([3]; dose 0.08 uM) was 0.557 and the Dose.FC.CTG ([3]; dose 2.00 uM) was −0.289 log2 fold change. The “Z.CTG (standard z score)” value ([3]; dose 2.00 uM) was −0.691, the Dose.FC.CTG ([3]; dose 10.00 uM) was −1.155 log2 fold change and the “Z.CTG (standard z score)” value ([3]; dose 10.00 uM) was −2.758.

In the case of OG-L002, the Dose.FC.LYZ.S [1, 4] is reported as 0.023 log2 fold change, the Dose.FC.LYZ.S [1, 5] is reported as 0.026 log2 fold change and the Dose.FC.LYZ.S [1, 6] is reported as −0.001 log2 fold change. For the same compound, the Dose.FC.LYZ.S [1, 7] was −0.084 log2 fold change, the Z.LYZ.NS ([2]; dose 0.08 uM) was −0.001 and the Z.LYZ.NS ([2]; dose 0.40 uM) was −0.097. For the same compound, the Z.LYZ.NS ([2]; dose 2.00 uM) was 0.182, the Z.LYZ.NS ([2]; dose 10.00 uM) was −0.790 and the Dose.FC.LYZ.NS [2, 4] was 0.000 log2 fold change. For the same compound, the Dose.FC.LYZ.NS [2, 5] was −0.011 log2 fold change, the Dose.FC.LYZ.NS [2, 6] was 0.021 log2 fold change and the Dose.FC.LYZ.NS [2, 7] was −0.091 log2 fold change. The Z.CTG ([3]; dose 0.08 uM) was 0.225, the Z.CTG ([3]; dose 0.40 uM) was 0.329 and the Z.CTG ([3]; dose 2.00 uM) was 0.306. The Z.CTG ([3]; dose 10.00 uM) was 0.225, the Dose.FC.CTG [3, 4] was 0.094 log2 fold change and the Dose.FC.CTG [3, 5] was 0.138 log2 fold change. The Dose.FC.CTG [3, 6] was 0.128 log2 fold change and the Dose.FC.CTG [3, 7] was 0.094 log2 fold change.

`CC(C)N(CC[C@H](c1ccccc1)c1cc(CO)ccc1O)C(C)C` [5-hydroxymethyl Tolterodine (PNU 200577, 5-HMT, 5-HM)] was tested, and the “SSMD.LYZ.S_Rep (strictly standardized mean difference)” value [1, 8] was 0.460, the “Z.LYZ.S (standard z score)” value [1, 8] was 0.417 and the “SSMD.LYZ.S_Rep (strictly standardized mean difference)” value [1, 9] was 0.266. The “Z.LYZ.S (standard z score)” value [1, 9] was 0.231, the “SSMD.LYZ.S_Rep (strictly standardized mean difference)” value [1, 10] was 0.174 and the “Z.LYZ.S (standard z score)” value [1, 10] was 0.152. The “SSMD.LYZ.S_Rep (strictly standardized mean difference)” value [1, 11] was −0.042, the “Z.LYZ.S (standard z score)” value [1, 11] was −0.044 and the Dose.FC.LYZ.S ([1]; dose 0.08 uM) was 0.065 log2 fold change. The Dose.FC.LYZ.S ([1]; dose 0.40 uM) was 0.036 log2 fold change, the Dose.FC.LYZ.S ([1]; dose 2.00 uM) was 0.023 log2 fold change and the Dose.FC.LYZ.S ([1]; dose 10.00 uM) was −0.007 log2 fold change. For the same compound, the “SSMD.LYZ.NS_Rep (strictly standardized mean difference)” value [2, 8] was 0.915, the “SSMD.LYZ.NS_Rep (strictly standardized mean difference)” value [2, 9] was 0.760 and the “SSMD.LYZ.NS_Rep (strictly standardized mean difference)” value [2, 10] was 0.947. The “SSMD.LYZ.NS_Rep (strictly standardized mean difference)” value [2, 11] was 0.223, the Dose.FC.LYZ.NS ([2]; dose 0.08 uM) was 0.184 log2 fold change and the “Z.LYZ.NS (standard z score)” value ([2]; dose 0.08 uM) was 1.599. The Dose.FC.LYZ.NS ([2]; dose 0.40 uM) was 0.076 log2 fold change, the “Z.LYZ.NS (standard z score)” value ([2]; dose 0.40 uM) was 0.665 and the Dose.FC.LYZ.NS ([2]; dose 2.00 uM) was 0.154 log2 fold change. The “Z.LYZ.NS (standard z score)” value ([2]; dose 2.00 uM) was 1.344, the Dose.FC.LYZ.NS ([2]; dose 10.00 uM) was 0.034 log2 fold change and the “Z.LYZ.NS (standard z score)” value ([2]; dose 10.00 uM) was 0.293. The “SSMD.CTG.Rep (strictly standardized mean difference)” value [3, 8] was −0.118, the “SSMD.CTG.Rep (strictly standardized mean difference)” value [3, 9] was 0.291 and the “SSMD.CTG.Rep (strictly standardized mean difference)” value [3, 10] was 0.114. For the same compound, the “SSMD.CTG.Rep (strictly standardized mean difference)” value [3, 11] was 0.061, the Dose.FC.CTG ([3]; dose 0.08 uM) was −0.062 log2 fold change and the “Z.CTG (standard z score)” value ([3]; dose 0.08 uM) was −0.149. For the same compound, the Dose.FC.CTG ([3]; dose 0.40 uM) was 0.087 log2 fold change, the “Z.CTG (standard z score)” value ([3]; dose 0.40 uM) was 0.207 and the Dose.FC.CTG ([3]; dose 2.00 uM) was 0.034 log2 fold change. For the same compound, the “Z.CTG (standard z score)” value ([3]; dose 2.00 uM) was 0.082, the Dose.FC.CTG ([3]; dose 10.00 uM) was 0.017 log2 fold change and the “Z.CTG (standard z score)” value ([3]; dose 10.00 uM) was 0.040.

In the case of `CO[C@H]1C[C@@H]2CC[C@@H](C)[C@@](O)(O2)C(=O)C(=O)N2CCCC[C@H]2C(=O)O[C@H]([C@H](C)C[C@@H]2CC[C@@H](OC(=O)C(C)(CO)CO)[C@H](OC)C2)CC(=O)[C@H](C)/C=C(\C)[C@@H](O)[C@@H](OC)C(=O)[C@H](C)C[C@H](C)/C=C/C=C/C=C/1C` [Temsirolimus (CCI-779, NSC 683864)], the Dose.FC.LYZ.S [1, 12] is reported as 0.082 log2 fold change, the Dose.FC.LYZ.S ([1]; dose 0.40 uM) is reported as 0.152 log2 fold change and the Dose.FC.LYZ.S ([1]; dose 2.00 uM) is reported as 0.132 log2 fold change. It also gave a Dose.FC.LYZ.S ([1]; dose 10.00 uM) of 0.153 log2 fold change, a Dose.FC.LYZ.NS [2, 12] of 0.091 log2 fold change and a Z.LYZ.NS ([2]; dose 0.08 uM) of 0.790. For the same compound, the Dose.FC.LYZ.NS ([2]; dose 0.40 uM) was 0.088 log2 fold change, the “Z.LYZ.NS (standard z score)” value ([2]; dose 0.40 uM) was 0.763 and the Dose.FC.LYZ.NS ([2]; dose 2.00 uM) was 0.172 log2 fold change. The “Z.LYZ.NS (standard z score)” value ([2]; dose 2.00 uM) was 1.494, the Dose.FC.LYZ.NS ([2]; dose 10.00 uM) was 0.119 log2 fold change and the “Z.LYZ.NS (standard z score)” value ([2]; dose 10.00 uM) was 1.035. It also gave a Dose.FC.CTG [3, 12] of 0.514 log2 fold change, a Z.CTG ([3]; dose 0.08 uM) of 1.228 and a Dose.FC.CTG ([3]; dose 0.40 uM) of 0.583 log2 fold change. The “Z.CTG (standard z score)” value ([3]; dose 0.40 uM) was 1.393, the Dose.FC.CTG ([3]; dose 2.00 uM) was 0.578 log2 fold change and the “Z.CTG (standard z score)” value ([3]; dose 2.00 uM) was 1.382. For the same compound, the Dose.FC.CTG ([3]; dose 10.00 uM) was 0.200 log2 fold change and the “Z.CTG (standard z score)” value ([3]; dose 10.00 uM) was 0.478.

Work on `COc1cc2c(cc1OC)CN(CCc1ccc(NC(=O)c3cc(OC)c(OC)cc3NC(=O)c3cnc4ccccc4c3)cc1)CC2` [Tariquidar] yielded a Dose.FC.LYZ.S [1, 12] of 0.040 log2 fold change, a Dose.FC.LYZ.S [1, 13] of 0.073 log2 fold change and a Dose.FC.LYZ.S [1, 14] of 0.059 log2 fold change. For the same compound, the Dose.FC.LYZ.S [1, 15] was 0.019 log2 fold change, the Dose.FC.LYZ.NS [2, 12] was 0.053 log2 fold change and the Z.LYZ.NS ([2]; dose 0.08 uM) was 0.465. The Dose.FC.LYZ.NS [2, 13] was 0.037 log2 fold change, the Z.LYZ.NS ([2]; dose 0.40 uM) was 0.326 and the Dose.FC.LYZ.NS [2, 14] was 0.031 log2 fold change. For the same compound, the Z.LYZ.NS ([2]; dose 2.00 uM) was 0.270, the Dose.FC.LYZ.NS [2, 15] was 0.034 log2 fold change and the Z.LYZ.NS ([2]; dose 10.00 uM) was 0.292. It also gave a Dose.FC.CTG [3, 12] of −0.117 log2 fold change, a Dose.FC.CTG [3, 13] of 0.054 log2 fold change and a Dose.FC.CTG [3, 14] of 0.376 log2 fold change. It also gave a Dose.FC.CTG [3, 15] of 0.227 log2 fold change.
